# ChEMBL document CHEMBL3272015, “Cysteine derivatives with reactive groups as potential antitumor agents” (1976)
# The source made the active and inactive calls. The rule behind the calls is not given here.
# System: TA3
# Test: Induction of growth in mouse TA3 cell at 10^-4 M
# Assay type: functional, cell-based
row,Compound,Activity
1,Cc1ccc([C@H]2SC[C@@H](C(=O)O)N2C(=O)C(F)(F)F)cc1,inactive
2,CC(=O)N1[C@@H](c2ccc(C)cc2)SC[C@H]1C(=O)O,inactive
3,Cc1ccc([C@@H]2N[C@H](C(=O)O)CS2)cc1,Active

# System: TA3
# Test: Antitumor activity against mouse TA3 cells assessed as growth inhibition at 10^-4 M
# Assay type: functional, cell-based
row,Compound,growth inhibition (GI)
1,Cc1ccc(C2NC(C(=O)O)C(C)(C)S2)cc1 (centres undefined),inactive
2,CC(=O)N1C(c2ccc(C)cc2)SC(C)(C)C1C(=O)O (centres undefined),inactive
3,CC(=O)N1[C@@H](c2ccc(C)cc2)SC[C@H]1C(=O)O,inactive
4,CC(=O)N1[C@@H](c2ccc(C)cc2)SC[C@H]1C(=O)C=[N+]=[N-],inactive

# System: TA3
# Test: Antitumor activity against mouse TA3 cells assessed as growth inhibition
# Assay type: functional
row,Compound,ID50
1,CC(=O)N1[C@@H](c2ccc(C)cc2)SC[C@H]1C(=O)CCl,3.2 ×10⁻⁵ M
2,N[C@@H](CSC(c1ccccc1)(c1ccccc1)c1ccccc1)C(=O)O [S-TRITYL-L-CYSTEINE],6.3 ×10⁻⁷ M
